In patent publication US11684067B2, “Generation of peroxyformic acid through polyhydric alcohol formate” (priority 2014, dated 2023):
Where “and” joins values, the source holds several entries; their conditions need not be identical. Identical values can stand only once. Like-named read-outs stand apart in the source and are kept apart here.

Tests used:
[1] = system: P. aeruginosa ATCC 15442 biofilm; assay: Biofilm disinfectant efficacy, CDC Biofilm Reactor, Single Tube Method (ASTM E2562-12, E2871-12); type: cell-based, Pseudomonas aeruginosa
Method: P. aeruginosa ATCC 15442 biofilm was grown on the surface of 24 polycarbonate coupons following ASTM method E2562-12: Standard Test Method for Quantification of Pseudomonas aeruginosa Biofilm Grown with High Shear and Continuous Flow using CDC Biofilm Reactor. After 48 hours of biofilm establishment, the coupons were removed from the reactor and placed into individual centrifuge tubes. Three coupons per test substance were tested for disinfectant efficacy using ASTM method E2871-12: Standard Test Method for Evaluating Disinfectant Efficacy against Pseudomonas aeruginosa Biofilm Grown in CDC Biofilm Reactor using Single Tube Method. Each coupon was exposed to 4 mL of chemistry for an exposure time of 3 hours. […] This was followed with a series of vortexing and sonicating steps to remove any biofilm from the coupon surface into the solution for plating and enumeration.
P. aeruginosa ATCC 15442 biofilm was grown on the surface of 24 polycarbonate coupons following ASTM method E2562-12: Standard Test Method for Quantification of Pseudomonas aeruginosa Biofilm Grown with High Shear and Continuous Flow using CDC Biofilm Reactor. After 48 hours of biofilm establishment, the coupons were removed from the reactor and placed into individual centrifuge tubes. […]

[2] = system: Nalidixic acid resistant E. coli O157:H7; assay: Reduction of E. coli on raw beef brisket, dip treatment; type: cell-based; details: 10 minutes dip, ambient, 220 ppm POAA / 180 ppm PFA / 50 ppm LAS per formula (Table 15)
Method: Nalidixic acid resistant E. coli O157:H7 was used to evaluate the efficacy in treatment with performic acid composition on raw beef brisket according to the conditions shown in Table 14.
The generation of PFA from the perhydrolysis of glycerol formates, PFA formulations, POAA formations and controls were evaluated as shown in Table 15.

[3] = system: Bacillus subtilis ATCC 19659; assay: Sporicidal activity of ester PFA, dirty conditions (Example 20); type: cell-based; details: 5 minutes
Source text: (§1) Various Bacillus and Aspergillus pathogens were used to evaluate the micro efficacy of ester PFA generated according to methods of the present invention.

[4] = system: Bacillus subtilis ATCC 6633; assay: as above; type: cell-based; details: 5 minutes
Source text: as §1

[5] = system: Aspergillus brasiliensis ATCC 16404; assay: Fungicidal activity of ester PFA, dirty conditions (Example 20); type: cell-based; details: 5 minutes
Source text: as §1

[6] = system: Aspergillus brasiliensis ATCC 16404; assay: Fungicidal/yeasticidal activity of ester PFA versus POAA (Example 22); type: cell-based; details: for Average CFU/mL / Log10 Growth / Log10 Reduction: 20°C, dirty
Source text: (§2) Canidia and Aspergillus pathogens were used to evaluate the micro efficacy of ester PFA generated according to methods of the present invention in comparison to POAA.

[7] = system: Candida albicans ATCC 10231; assay: as above; type: cell-based; details: for Average CFU/mL / Log10 Growth / Log10 Reduction: 20°C, dirty
Source text: as §2

[8] = system: Various pathogens; type: cell-based
[9] = Laundry disinfection efficacy, EPA protocol on 100% cotton carriers (Table 38); type: cell-based; details: pH 7.7, 500 ppm hard water; for Log survivors (CFU/carrier) / Log reduction: 18 ppm, 40° C., 5 minute exposure; for Log survivors (CFU/carrier): cotton carriers; for Log reduction: vs water control
Method: The microbial efficacy of peroxyformic acid was also tested following the EPA protocol on 100% cotton carriers against a water control. The test conditions were pH 7.7, 500 ppm hard water, 40° C. and 5 minute exposure time. In comparison, the performance of peracetic acid was also tested under the same conditions.

[10] = cited from earlier work
[11] = 200 ppm PFA pH 6.15 / 245 ppm POAA pH 6.56, 5 minutes
[12] = 200 ppm PFA pH 6.15 / 245 ppm POAA pH 6.56, 10 minutes
[13] = 200 ppm PFA pH 6.15 / 245 ppm POAA pH 6.56, 15 minutes
[14] = 300 ppm PFA pH 6.21 / 368 ppm POAA pH 6.63, 5 minutes
[15] = 300 ppm PFA pH 6.21 / 368 ppm POAA pH 6.63, 10 minutes
[16] = Klebsiella pneumoniae ATCC 4352
[17] = Staphylococcus aureus ATCC 6538

## O=COO [PFA, peroxyformic acid]
[1]; 50 ppm PFA 15 minutes to 3 hours vs 200 ppm POAA 3 hours, FIG. 12
  anti-biofilm efficacy compared with POAA: greater anti-biofilm efficacy
[1]; 3 hours exposure, concentration lower than POAA, FIG. 11
  anti-biofilm efficacy compared with POAA: significantly greater anti-biofilm efficacy
[2]
  Average Log CFU/cm2: 3.22 Log CFU/cm2
  Log reduction: 0.83 Log
[2]; single samples
  CFU/cm2: 1.84E+03 CFU/cm2 and 1.42E+03 CFU/cm2 and 1.72E+03 CFU/cm2
  CFU/ml: 9.20E+02 CFU/ml and 7.10E+02 CFU/ml and 8.60E+02 CFU/ml
  Log CFU/cm2: 3.26 Log CFU/cm2 and 3.15 Log CFU/cm2 and 3.24 Log CFU/cm2
[3]; 200 ppm PFA pH 5.81, 35°C
  Log10 Growth: <2.18 Log10
  Log10 Reduction: >3.87 Log10
[3]; 250 ppm PFA pH 5.82, 35°C
  Log10 Growth: <2.18 Log10
  Log10 Reduction: >3.87 Log10
[3]; 300 ppm PFA pH 5.91, 35°C
  Log10 Growth: <2.18 Log10
  Log10 Reduction: >3.87 Log10
[3]; 350 ppm PFA pH 5.88, 35°C
  Log10 Growth: <2.18 Log10
  Log10 Reduction: >3.87 Log10
[4]; 200 ppm PFA pH 5.81, 35°C
  Log10 Growth: <2.18 Log10
  Log10 Reduction: >3.91 Log10
[4]; 250 ppm PFA pH 5.82, 35°C
  Log10 Growth: <2.18 Log10
  Log10 Reduction: >3.91 Log10
[4]; 300 ppm PFA pH 5.91, 35°C
  Log10 Growth: <2.18 Log10
  Log10 Reduction: >3.91 Log10
[4]; 350 ppm PFA pH 5.88, 35°C
  Log10 Growth: <2.18 Log10
  Log10 Reduction: >3.91 Log10
[5]; 200 ppm PFA pH 5.81, 35°C
  Log10 Growth: >4.22 Log10
  Log10 Reduction: <1.89 Log10
[5]; 250 ppm PFA pH 5.82, 35°C
  Log10 Growth: 3.55 Log10
  Log10 Reduction: 2.56 Log10
[5]; 300 ppm PFA pH 5.91, 35°C
  Log10 Growth: 3.38 Log10
  Log10 Reduction: 2.73 Log10
[5]; 350 ppm PFA pH 5.88, 35°C
  Log10 Growth: 3.46 Log10
  Log10 Reduction: 2.65 Log10
[6]; 5, 10 and 15 minutes, lower actives, FIG. 19
  reduction in A. brasiliensis conidio spores compared with POAA: improved reduction
[6]; [11]
  Average CFU/mL: 1.60E+04 CFU/mL
  Log10 Growth: 4.20 Log10
  Log10 Reduction: 1.54 Log10
[6]; [12]
  Average CFU/mL: 1.75E+03 CFU/mL
  Log10 Growth: 3.24 Log10
  Log10 Reduction: 2.50 Log10
[6]; [13]
  Average CFU/mL: 3.85E+02 CFU/mL
  Log10 Growth: 2.59 Log10
  Log10 Reduction: 3.16 Log10
[6]; [14]
  Average CFU/mL: 4.10E+02 CFU/mL
  Log10 Growth: 2.61 Log10
  Log10 Reduction: 3.13 Log10
[6]; [15]
  Average CFU/mL: 1.20E+02 CFU/mL
  Log10 Growth: 2.08 Log10
  Log10 Reduction: 3.67 Log10
[7]; 5, 10 and 15 minutes, lower actives, FIG. 18
  reduction in C. albicans compared with POAA: equivalent reduction
[7]; [11]
  Average CFU/mL: <140 CFU/mL
  Log10 Growth: <2.15 Log10
  Log10 Reduction: >4.14 Log10
[7]; [12]
  Average CFU/mL: <140 CFU/mL
  Log10 Growth: <2.15 Log10
  Log10 Reduction: >4.14 Log10
[7]; [13]
  Average CFU/mL: <140 CFU/mL
  Log10 Growth: <2.15 Log10
  Log10 Reduction: >4.14 Log10
[7]; [14]
  Average CFU/mL: <140 CFU/mL
  Log10 Growth: <2.15 Log10
  Log10 Reduction: >4.14 Log10
[7]; [15]
  Average CFU/mL: <140 CFU/mL
  Log10 Growth: <2.15 Log10
  Log10 Reduction: >4.14 Log10
[8]; EN 13624, 450 ppm PFA pH 6-7, Aspergillus brasiliensis ATCC 1604, passing requirement 4 log reduction
  Result: PASS
[8]; EN 13624, 450 ppm PFA pH 6-7, Canidia albicans ATCC 10231, passing requirement 4 log reduction
  Result: PASS
[8]; EN 13704, 450 ppm PFA pH 6-7, Bacillus subtilis ATCC 6633, passing requirement 3 log reduction
  Result: PASS
[8]; EN 13727, 450 ppm PFA pH 6-7, Enterococcus hirae ATCC 10541, passing requirement 5 log reduction
  Result: PASS
[8]; EN 13727, 450 ppm PFA pH 6-7, P. aeruginosa ATCC 15442, passing requirement 5 log reduction
  Result: PASS
[8]; EN 13727, 450 ppm PFA pH 6-7, Staph Aureus ATCC 6538, passing requirement 5 log reduction
  Result: PASS
[8]; pH 6
  Result: PASS
[9]; [16]
  Log survivors (CFU/carrier): <1.00 log10 CFU/carrier
  Log reduction: >5.12
[9]; [17]
  Log survivors (CFU/carrier): 1.63 log10 CFU/carrier
  Log reduction: 5.22
[9]; 40°C, 5 minute, less than half of the dose of peracetic acid
  kill compared with peracetic acid: significant better kill than peracetic acid
[10]
  pKa value: 7.2
